Results reported in PMC5995184, “Potent anti-leukemic activity of a specific cyclin-dependent kinase 9 inhibitor in mouse models of chronic lymphocytic leukemia” (Oncotarget, 2018).

How the values were obtained:
CDK1-Cyclin B1 = target: T1, CDK1-Cyclin B1 (Homo sapiens, UniProt P06493); assay: FRET-based LANCE Ultra in vitro enzymatic kinase assay, CDK1; assay type: biochemical
T1 construct: purchased Carna Biosciences
Description: (§1) IC50 values for CDK inhibitors were determined using the fluorescence resonance energy transfer (FRET)-based LANCE Ultra KinaSelect Ser/Thr kit (Perkin Elmer). Kinase activity and inhibition were measured according to the manufacturer’s instructions and as previously described. […] FRET signals were recorded in a time-resolved manner in a Perkin Elmer EnVision reader. Purified cyclin-kinase pairs were obtained from the following suppliers: Carna Biosciences (CDK1-Cyclin B1, CDK6-Cyclin D3, CDK7-Cyclin H-MAT1), ProQinase (CDK2-Cyclin A) and Invitrogen (CDK9-Cyclin T1).
(§2) Data were analyzed with GraphPad Prism 7 software. Differences were assessed by unpaired or paired Student t tests if not indicated otherwise. Two-sided probabilities of less than 0.05 were considered significant. Nonlinear regression sigmoidal dose-response curve fit was used to determine the IC50 values and to generate graphs.

CDK7-Cyclin H-MAT1 = target: T2, CDK7-Cyclin H-MAT1 (Homo sapiens, UniProt P50613); assay: FRET-based LANCE Ultra in vitro enzymatic kinase assay, CDK7; assay type: biochemical
T2 construct: purchased Carna Biosciences
Description: as §1, §2

[1] = test system: human CLL cells and human T cells in NSG spleens; assay: Human CLL xenograft in NSG mice, oral LDC526; assay type: in vivo, mouse; details: for mean weight loss: 75 mg/kg group
Description: We and others previously established human CLL xenograft models using NOD/SCID and NSG mice, respectively. We chose to use the NSG model for LDC526 experiments since NSG CLL and concomitant T cell engraftment levels are expected to be higher than in the NOD/SCID model. We intravenously injected PBMCs from n=6 CLL patients into n=57 NSG mice and commenced LDC treatment with a 14 day latency according to the experimental set-up outlined in Figure 3A. To study the effect of doses and treatment duration we chose to administer 50 and 75 mg/kg for three days (NSG transplanted with cells originating from n=3 patients) and for five days (NSG transplanted with cells originating from n=3 additional patients). On experimental days 17 and 21 NSG spleens were harvested and the content of human CLL and T cells was determined by cell counting and flow cytometry (Figure 3B). […] Compared to carrier control treatment, numbers of human CLL cells decreased after 3 and 5 days of LDC526 treatment, respectively. However, statistical significance regarding the reduction of human CLL cell numbers was only achieved at the LDC526 75 mg/kg dose level (Figure 3C). […] In order to determine whether there was differential in vivo LDC526 sensitivity of T cell subsets we performed additional staining for human CD4+ and CD8+ T cells present in the spleens of xenografted NSG mice (Figure 4A). […] In contrast, in mice transplanted with cells of n=2 other CLL patients and receiving LDC526 treatment for 5 days we observed a rising CD4/CD8 ratio with increasing LDC526 doses (Figure 4B). This could mean that CD8+ cytotoxic T cells are more susceptible to longer LDC526 exposure (5 versus 3 days) than CD4+ T cells. However, this differential skew within the T cell compartment could also reflect the heterogeneity of T cells derived from different CLL patients. […] A mean weight loss of 1.8% was detectable in mice of the LDC526 75 mg/kg group (day 16). […] Remarkably, human T cell numbers were already decreased at a lower dose level than human CLL cells.
All mice were bred and housed at the University Hospital Essen animal care facility. TCL1 mice were back-crossed more than 6 generations into the C57BL/6 background and were genotyped as previously described. Age-matched TCL1 wild-type littermates served as controls. Peripheral blood counts were determined with the VetABC analyzer (scil, Viernheim, Germany). Blood smears were Wright-Giemsa stained. For the human CLL xenograft experiments eight to 14-week-old NOD.Cg-Prkdc^scid Il2rg^tm1Wjl/SzJ (NOD/scid/γc^null; NSG) mice were sublethally irradiated (3.25 Gy) 24 hours before transplantation. Freshly isolated 1.0 x 10^8 PBMC suspended in 0.2 ml of RPMI were intravenously transplanted as previously described. For oral administration, LDC526 was diluted in polyethelene glycol (PEG Mn 400, Sigma-Aldrich) and administerd by gavage. Animal experiments were performed in accordance with institutional guidelines approved by the Animal Care Committee of the University Hospital Essen.
LDC526 [(3-((4-(4-fluoro-2-methoxyphenyl)-1,3,5-triazin-2-yl)amino)phenyl)methane-sulfonamide, molecular weight 389,41 g/mol, Figure 1A] was provided as powder (LDC526 synthesis, supplementary methods). For oral gavage administration LDC526 was diluted in polyethelene glycol (PEG Mn 400, Sigma-Aldrich, Munich, Germany) followed by sonication for 3 x 5 minutes with intermediate mixing.
Apoptosis and cell death were determined by using Annexin V (BD Biosciences, Heidelberg, Germany) and 4′,6-Diamidin-2-phenylindol (DAPI, Sigma-Aldrich) staining. Erythrocytes of murine peripheral blood samples were lysed with NH4Cl hypotonic solution. Single cell suspensions of murine spleens were prepared as previously described. Murine cells were stained with antibodies directed against murine CD3 (clone 145-2C11), CD5 (53-7.3) and CD19 (1D3), respectively. […]

[2] = 75 mg/kg, day 21, representative plot

T1 sequence (P06493 whole entry): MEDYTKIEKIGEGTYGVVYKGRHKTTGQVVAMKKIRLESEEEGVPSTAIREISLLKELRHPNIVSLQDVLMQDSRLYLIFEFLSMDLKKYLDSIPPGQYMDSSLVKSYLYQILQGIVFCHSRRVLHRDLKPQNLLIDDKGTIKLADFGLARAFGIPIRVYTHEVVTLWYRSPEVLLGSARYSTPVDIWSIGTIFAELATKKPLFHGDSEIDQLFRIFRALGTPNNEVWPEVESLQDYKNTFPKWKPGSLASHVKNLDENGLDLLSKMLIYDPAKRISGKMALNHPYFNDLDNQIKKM
T1 sequence (P14635 whole entry partner): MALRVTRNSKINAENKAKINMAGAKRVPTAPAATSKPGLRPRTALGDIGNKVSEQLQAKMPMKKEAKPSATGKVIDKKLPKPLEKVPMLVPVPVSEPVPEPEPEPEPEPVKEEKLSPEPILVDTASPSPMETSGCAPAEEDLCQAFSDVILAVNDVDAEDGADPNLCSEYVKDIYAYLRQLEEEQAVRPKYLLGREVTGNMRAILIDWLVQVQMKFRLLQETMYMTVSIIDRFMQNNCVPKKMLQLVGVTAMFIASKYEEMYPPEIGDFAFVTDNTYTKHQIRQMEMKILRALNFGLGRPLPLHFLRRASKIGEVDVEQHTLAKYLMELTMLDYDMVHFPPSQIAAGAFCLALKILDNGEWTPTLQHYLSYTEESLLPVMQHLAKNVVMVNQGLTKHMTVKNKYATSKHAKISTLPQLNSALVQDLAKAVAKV
T2 sequence (P50613 whole entry): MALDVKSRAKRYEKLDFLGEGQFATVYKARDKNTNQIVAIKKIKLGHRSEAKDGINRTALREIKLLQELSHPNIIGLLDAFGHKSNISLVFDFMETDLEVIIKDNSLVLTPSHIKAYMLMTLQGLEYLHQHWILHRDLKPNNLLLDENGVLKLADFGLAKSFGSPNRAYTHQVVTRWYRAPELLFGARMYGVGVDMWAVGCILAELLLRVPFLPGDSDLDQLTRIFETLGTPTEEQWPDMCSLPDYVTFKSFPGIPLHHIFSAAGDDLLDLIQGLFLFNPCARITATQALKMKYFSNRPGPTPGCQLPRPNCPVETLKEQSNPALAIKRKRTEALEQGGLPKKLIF
T2 sequence (P51946 whole entry partner): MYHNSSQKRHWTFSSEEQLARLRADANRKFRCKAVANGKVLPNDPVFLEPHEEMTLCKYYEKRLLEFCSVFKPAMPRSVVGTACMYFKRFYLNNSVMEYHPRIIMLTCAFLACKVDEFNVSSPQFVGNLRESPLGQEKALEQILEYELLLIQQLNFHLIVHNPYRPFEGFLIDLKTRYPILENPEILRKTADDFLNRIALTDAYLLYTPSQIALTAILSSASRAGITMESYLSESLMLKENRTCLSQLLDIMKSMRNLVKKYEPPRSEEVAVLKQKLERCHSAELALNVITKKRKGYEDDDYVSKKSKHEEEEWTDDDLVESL
T2 sequence (P51948 whole entry partner): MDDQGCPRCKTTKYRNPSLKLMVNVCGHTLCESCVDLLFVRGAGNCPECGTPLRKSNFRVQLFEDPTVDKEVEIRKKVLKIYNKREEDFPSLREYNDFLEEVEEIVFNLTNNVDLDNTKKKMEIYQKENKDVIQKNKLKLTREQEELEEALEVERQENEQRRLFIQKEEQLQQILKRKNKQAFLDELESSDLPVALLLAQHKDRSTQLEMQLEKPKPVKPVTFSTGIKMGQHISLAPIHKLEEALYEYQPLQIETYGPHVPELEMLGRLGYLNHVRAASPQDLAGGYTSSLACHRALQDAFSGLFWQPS

SMILES: COc1cc(F)ccc1-c1ncnc(Nc2cccc(CS(N)(=O)=O)c2)n1 [LDC526, (3-((4-(4-fluoro-2-methoxyphenyl)-1,3,5-triazin-2-yl)amino)phenyl)methane-sulfonamide]
- selectivity versus CDK9 compared to CDK1 (CDK1-Cyclin B1): 82 fold
- IC50 (CDK7-Cyclin H-MAT1): > 10 µM
- reduction of human CLL cells in NSG spleens compared to carrier control ([1]; 75 mg/kg for 5 days): 77%
- mean weight loss ([1]; day 16): 1.8%
- mean weight loss ([1]; day 21): 3.6%
- flow cytometry gate huCD4, NSG spleen T cells [1, 2]: 81.2
- flow cytometry gate huCD8, NSG spleen T cells [1, 2]: 14.7
- flow cytometry gate huCD45+ huCD3, NSG spleen [1, 2]: 38.7
- numbers of splenic human T cells ([1]; 50 and 75 mg/kg, 3 or 5 days): significantly reduced at both LDC526 doses
